We go through one molecule from patent US20130197030A1, “Substituted 1,3-Dioxanes and There Uses” (Evolva Sa, priority 2007, published 2013).

Assay [1] deals with arterial thrombosis in a mouse model. As to the kind of experiment: Arterial thrombosis in a mouse model (FeCl3, femoral artery). Type of assay: in vivo. The conditions noted are these: mice; dose not given. The protocol: The solutions are diluted 3.3-fold in saline and 100 μl/25 g is injected. Thus, the above-mentioned doses of 100 and 300 mg/kg of compound correspond to final doses of 30 and 100 mg/kg.
During the experiments, a soluble salt of the drug is provided (e.g., potassium salt of compound C), diluted in saline. Of this formulation, 100 μl/25 g is injected i.v. in the tail vein (dose of 100 mg/kg).
Solutions are injected (100 μl/25 g body weight) i.v. in the tail vein over 2 min to obtain doses of each compound of 30 mg/kg and 100 mg/kg. Aspirin is given the same way at a dose of 200 mg/kg. Clopidogrel is administered by oral gavage at a dose of 20 mg/kg at 6-7 hours prior to the experiment. The animals assigned to each group are matched for body weight. Mice are typically 8-10 weeks old males and are in a 100% Swiss genetic background.
The flow in each image is expressed as a percentage of that at the contralateral side, and data are averaged for all 120 images to determine total flow. The same analysis is performed for 10 min intervals (which gives essentially the same information as the area under the curve). […] Flow before treatment is recorded as 100%, and that in occluded arteries as 0%. At the end of the experiment, blood is collected on 0.01M citrate buffer by heart puncture for determination of blood cell counts. Plasma is prepared by centrifugation and stored at −20° C. for determination of drug levels.
Statistical analysis for differences between two groups is performed by non-parametric Student t-test. Occlusion times >30 min were considered equal to 30 min for statistical analysis. Significance is set at p<0.05.

The next assay concerns 3T3-L1 adipocytes. As to the kind of experiment: Insulin-stimulated glucose uptake assay. Type of assay: cell-based. The settings on record: compared with Compound A (racemate). The protocol: Briefly, glucose uptake is measured in 3T3-L1 adipocytes cultured in 96-well plates. On day 6 of differentiation (according to the MDI-protocol, see above) cells are treated with either vehicle, positive control (Avandia) or test compound. 48 hours later the ability of adipocytes to take up glucose in response to insulin is determined. Cells are washed with serum-free DMEM+antibiotics and incubated in the same medium at 37° C. for 2 hours. Cells are then washed and subsequently incubated in Krebs-Ringer-Hepes (KRP) buffer for 30 min at 37° C. Hereafter, insulin is added to the cells to a final concentration of 10 nM and cells are then incubated at 37° C. for 15 min. Glucose uptake is initiated by the addition of KRP buffer supplemented with 10 mM [^14C] 2-deoxy-D-glucose. After further incubation for 15 min at 37° C., glucose uptake is terminated by addition of a large surplus of cold glucose and three rapid washes of ice-cold PBS. Cells are then lysed and ^14C-radioactivity determined by scintillation counting.

For assay [2], the target named is T1, Human Recombinant (E. coli) PPARgamma (Homo sapiens, UniProt P37231).
T1 construct: host or cells: E. coli
T1 sequence (P37231 1-505): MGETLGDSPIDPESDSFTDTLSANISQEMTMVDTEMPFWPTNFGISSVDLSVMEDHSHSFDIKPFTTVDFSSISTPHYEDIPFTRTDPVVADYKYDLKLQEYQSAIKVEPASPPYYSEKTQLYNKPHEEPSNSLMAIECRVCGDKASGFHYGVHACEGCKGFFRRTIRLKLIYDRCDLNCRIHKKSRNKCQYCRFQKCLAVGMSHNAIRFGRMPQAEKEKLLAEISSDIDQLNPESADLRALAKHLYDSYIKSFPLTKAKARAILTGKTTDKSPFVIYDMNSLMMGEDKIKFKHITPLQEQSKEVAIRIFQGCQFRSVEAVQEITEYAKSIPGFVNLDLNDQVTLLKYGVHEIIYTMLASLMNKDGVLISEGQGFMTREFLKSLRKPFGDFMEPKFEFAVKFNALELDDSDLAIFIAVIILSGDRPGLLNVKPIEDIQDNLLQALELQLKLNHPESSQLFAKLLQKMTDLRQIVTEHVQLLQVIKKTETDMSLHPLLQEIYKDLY
As to the kind of experiment: PPAR gamma binding assay. The procedure:
Incubation: 120 min. at 4° C.
The results are expressed as a percent of control specific binding ((measured specific binding/control specific binding)×100) obtained in the presence of the test compounds. The IC50 values (concentration causing a half-maximal inhibition of control specific binding) and Hill coefficients (nil) were determined by non-linear regression analysis of the competition curves generated with mean replicate values using Hill equation curve fitting (Y=D+[(A−D)/(1+(C/C50)nH)], where Y=specific binding, D=minimum specific binding, A=maximum specific binding, C=compound concentration, C50=IC50, and nH=slope factor). This analysis was performed using a software developed at Cerep (Hill software) and validated by comparison with data generated by the commercial software SigmaPlot 4.0 for Windows® (© 1997 by SPSS Inc.). The inhibition constants (Ki) were calculated using the Cheng Prusoff equation (Ki=IC50/(1+(L/KD)), where L=concentration of radioligand in the assay, and KD=affinity of the radioligand for the receptor).

The target in another assay is T2, Thromboxane synthase (Homo sapiens, UniProt P24557).
T2 construct: Human Platelet Thromboxane Synthase Assay; from tissue; host or cells: human platelets
T2 sequence (P24557 1-533): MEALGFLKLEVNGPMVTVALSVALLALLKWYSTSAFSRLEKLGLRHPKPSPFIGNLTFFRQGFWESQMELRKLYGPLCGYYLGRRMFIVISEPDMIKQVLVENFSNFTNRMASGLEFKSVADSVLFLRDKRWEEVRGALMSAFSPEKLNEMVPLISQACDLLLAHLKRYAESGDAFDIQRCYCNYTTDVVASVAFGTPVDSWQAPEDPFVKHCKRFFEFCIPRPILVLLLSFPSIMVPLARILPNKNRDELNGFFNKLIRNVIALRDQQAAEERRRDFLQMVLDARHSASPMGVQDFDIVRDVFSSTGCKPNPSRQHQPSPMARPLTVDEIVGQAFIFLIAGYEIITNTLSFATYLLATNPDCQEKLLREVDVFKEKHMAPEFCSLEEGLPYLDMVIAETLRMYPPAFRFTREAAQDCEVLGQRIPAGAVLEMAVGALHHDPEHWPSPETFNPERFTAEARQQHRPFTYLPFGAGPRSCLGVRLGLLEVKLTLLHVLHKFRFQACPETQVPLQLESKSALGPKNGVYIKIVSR
As to the kind of experiment: Human platelet thromboxane synthase assay. Type of assay: biochemical. The procedure: The compounds were tested for thromboxane synthase inhibition essentially as described by Borsch-Haubold A G, Pasquet S, Watson S P. (1998). Direct inhibition of cyclooxygenase-1 and -2 by the kinase inhibitors SB 203580 and PD 98059. […] 1. Imidazole derivatives. J Med. Chem. (10):1139-48 according to the following:
Pre-incubation time, temp: 15 minutes at 25° C. Incubation time, temp: 3 minutes at 25° C.
Incubation Buffer: 10 mM Tris-HCl, pH 7.4
Quantification Method: ETA quantification of TxB2

What is called Ki is the equilibrium dissociation constant of an inhibitor or competing ligand from its target. The IC50 is the concentration that gives 50% inhibition. One may read the inhibition as the percentage by which the read-out fell short of the control. A lower inhibition goes with little suppression. In the case of `O=C(O)CC/C=C\CC1COC(c2coc3ccc(Cl)cc3c2=O)OC1c1ccccc1O` (racemic) [Compound 3, (Z)-6-(2-(6-Chloro-4-oxo-4H-chromen-3-yl)-4-(2-hydroxyphenyl)-1,3-dioxan-5-yl)hex-4-enoic acid], in assay [1], the Occlusion time entry was “prolongs the occlusion time” and the Total blood flow result was “improves total blood flow”. Moreover, the “Effect in glucose uptake assays (in words)” value in the assay on 3T3-L1 adipocytes was “effect similar if not better to Compound A (racemate)”. Further, in assay [2] ([3H]-rosiglitazone 10 nM, Cheng Prusoff, read-out: PPARγ binding Ki), the Ki was 2700 nM. The half-maximal inhibitory concentration (IC50) in assay [2] ([3H]-rosiglitazone 10 nM, read-out: PPARγ binding IC50) was determined as 7400 nM. Further, the “Binding to PPARgamma (in words)” value in assay [2] (compared with Compound A) is listed as “binds to PPARgamma at least as well as Compound A”. Also, on Thromboxane synthase, half-maximal inhibition (IC50) was put at 56 nM and the “Inhibition of thromboxane synthase (in words)” value is recorded as “potent inhibitors of thromboxane synthase”. Besides, at 5 µM the inhibition at Thromboxane synthase (at 5 μM) was 94%.
